Structures are written as SMILES. Numbered stars: 1 amine (or outer) side, 2 acyl side, 3 side chain; on linkers, the order of the positions; unused ones are H or OH. Bridge positions count the residues as written; N and C are the ends. Square brackets hold non-standard residues; d marks the D form. Peptide text beside a SMILES is read from it. I, II: the chains in the order shown. ξ: configuration not given here. Phe(4-tBu) = CC(C)(C)c1ccc(C[C@H](N)C(=O)O)cc1; Diglycolyl = O=C(COCC(=O)[*:2])[*:1]; NMeR = CN[C@@H](CCCNC(=N)N)C(=O)O; β3hE = N[C@@H](CCC(=O)O)CC(=O)O; Thr(3ξ) = CC(O)[C@H](N)C(=O)O; Pen = CC(C)(S)[C@H](N)C(=O)O

Two molecules from US9809623B2, “α4β7 peptide monomer and dimer antagonists” (Protagonist Therapeutics, Inc., priority 2014, dated 2017) can be followed below.

The assay deals with BALB/c mice, chronic DSS colitis. The assay is described as follows: 15 day chronic DSS colitis mouse model. In kind it is in vivo. How it is done: To further evaluate the efficacy of peptides of the present invention in treating colitis, a chronic DSS colitis mouse model was used to examine the effects of orally administered Peptide X or another peptide, Peptide XX, as compared to vehicle control or the antibodies, MECA 367 and DATK32. Peptide XX is a dimer having the following structure, where DIG links the two peptide monomers by their C-termini:
In this 15 day chronic DSS colitis study, BALB/c mice were treated continuously with 2.5% DSS. Peptide X dosing was 55 mg/kg/day, 17 mg/kg/day or 6 mg/kg/day in drinking water. Peptide XX dosing was 10 mg/kg PO BID plus 0.2 mg/ml in drinking water. The anti-α4β7 Ab DATK32 was dosed 25 mg/kg IP every 3 days, and the anti-MAdCAM Ab MECA 367 was dosed 8 mg/kg IP daily. After takedown, distal colon sections were fixed for histopathology and processed for β7+ cell IH staining using the anti-β7 antibody M293.

Where [1] appears, read: 10 mg/kg PO BID plus 0.2 mg/ml in drinking water.

Turning to `CC(=O)N[C@@H]1C(=O)N(C)[C@@H](CCCNC(=N)N)C(=O)N[C@@H](CO)C(=O)N[C@@H](CC(=O)O)C(=O)N[C@@H](C(C)O)C(=O)N[C@@H](CC(C)C)C(=O)N[C@H](C(=O)N[C@@H](Cc2ccc(C(C)(C)C)cc2)C(=O)N[C@@H](CCC(=O)O)CC(=O)N[C@H](CCCCNC(=O)COCC(=O)NCCCC[C@@H](NC(=O)C[C@H](CCC(=O)O)NC(=O)[C@H](Cc2ccc(C(C)(C)C)cc2)NC(=O)[C@H]2NC(=O)[C@H](CC(C)C)NC(=O)[C@H](C(C)O)NC(=O)[C@H](CC(=O)O)NC(=O)[C@H](CO)NC(=O)[C@H](CCCNC(=N)N)N(C)C(=O)[C@@H](NC(C)=O)C(C)(C)SSC2(C)C)C(N)=O)C(N)=O)C(C)(C)SSC1(C)C` (stereo partly drawn) [Peptide X, [Ac-Pen-(N-Me-Arg)-Ser-Asp-Thr-Leu-Pen-(Phe(4-tBu))-(β-homoGlu)-(D-Lys)]2-DIG] (I: Ac-[Pen][NMeR]SD[Thr(3ξ)]L[Pen][Phe(4-tBu)][β3hE][dK]-NH2 / II: Ac-[Pen][NMeR]SD[Thr(3ξ)]L[Pen][Phe(4-tBu)][β3hE][dK]-NH2; disulfide I:1-I:7, II:1-II:7; linker I:10-II:10 via Diglycolyl), the “infiltration of B7+ cells into the lamina propria of the distal colon” value (all doses: 55, 17 or 6 mg/kg/day in drinking water) was “reduced infiltration”.

Take `CC(=O)N[C@@H]1C(=O)N(C)[C@@H](CCCNC(=N)N)C(=O)N[C@@H](CO)C(=O)N[C@@H](CC(=O)O)C(=O)N[C@@H]([C@@H](C)O)C(=O)N[C@@H](CC(C)C)C(=O)N[C@H](C(=O)N[C@@H](Cc2c[nH]c3ccccc23)C(=O)N[C@@H](CCC(=O)O)CC(=O)N[C@H](CCCCNC(=O)COCC(=O)NCCCC[C@@H](NC(=O)C[C@H](CCC(=O)O)NC(=O)[C@H](Cc2c[nH]c3ccccc23)NC(=O)[C@H]2NC(=O)[C@H](CC(C)C)NC(=O)[C@H]([C@@H](C)O)NC(=O)[C@H](CC(=O)O)NC(=O)[C@H](CO)NC(=O)[C@H](CCCNC(=N)N)N(C)C(=O)[C@@H](NC(C)=O)C(C)(C)SSC2(C)C)C(N)=O)C(N)=O)C(C)(C)SSC1(C)C` [compound 213, [Ac-Pen-(N-Me-Arg)-Ser-Asp-Thr-Leu-Pen-Trp-(β-homoGlu)-(D-Lys)-NH2]2-DIG] (I: Ac-[Pen][NMeR]SDTL[Pen]W[β3hE][dK]-NH2 / II: Ac-[Pen][NMeR]SDTL[Pen]W[β3hE][dK]-NH2; disulfide I:1-I:7, II:1-II:7; linker I:10-II:10 via Diglycolyl): under setting [1], the “colon macroscopic and histopathology scores” value is “reduced colon macroscopic and histopathology scores comparable to the antibodies”; the “infiltration of B7+ cells into the lamina propria of the distal colon” value is given as “reduced infiltration”.
